Molecular target: c-kit (Homo sapiens, UniProt P10721)
Experiment: Generic kinase assay (33P-ATP, Myelin Basic Protein)
Type: biochemical
Details: 1 h; class symbol: % inhibition at 10 μM or IC50; read-out: Inhibitory effect on target c-kit
Experimental: (§1) In order to determine the inhibitory effect of the compounds of the subject invention on various target enzymes a generic kinase assay was established.
(§2) Reactions were performed in 96-Well U-bottom microtiter plates (Greiner Bio-One; Frickenhausen/Germany, Cat. No. 650161), hereinafter designated “Assay Plates”. 10 μl of a solution comprising 40 μM Myelin Basic Protein (Invitrogen; Carlsbad, Calif./USA; Cat. No. 13228-010) and 4 μM ATP in three-fold concentrated Reaction Buffer (60 mM Tris-HCl, pH 7.5; 30 mM MgCl2; 3 mM dithiothreitol) were added into each well of the Assay Plate. 10 μl of serial dilutions of the compounds of the subject invention, dissolved in 4% DMSO, were then added into each well, except for Positive Control. Wells (C+ wells) and Negative Control Wells (C− wells). 10 μl of 4% DMSO without compounds were added to C+ and C− wells. 10 μl of a 500 mM solution of EDTA in water was then added to C− wells. Then 10 μl of a solution containing 50 μCi/ml Adenosine 5′-[γ-^33P]triphosphate in water was added to each well. To start the reaction 10 μl of the kinase to be assayed was added to each well. The optimal amount of kinase in the assay was determined to be the amount which yields to a turn-over of about 10% of ATP. Assay Plates were incubated for one hour at room temperature. Then 10 μl of a 500 mM solution of EDTA in water was added to each well except C− wells. Samples were now ready for measurement.
(§3) Measurements were preformed in 96-Well MAPH-Filter Plates (Millipore; Billerica, Mass./United States; Cat. No. MAPHNOB50), hereinafter designated “Measurement Plates”. Measurement Plates were washed with 200 μl of a 0.75% H3PO4 solution per well. The H3PO4 solution was exhausted using a Millipore vacuum station. 60 μl of a 0.75% H3PO4 solution was then added into each well, followed by the transfer of 30 μl of each well from the Assay Plate into the corresponding wells of the Measurement Plate. The Measurement Plate was incubated for 30 minutes at room temperature. Thereafter each well was washed three times with 200 μl of a 0.75% H3PO4 solution using a Millipore vacuum station. 20 μl of scintillation liquid (Supermix Liquid Szintillator; Perkin Elmer, Wellesley. Mass./United States; Cat. No. 1200-439) was then added to each well of the Measurement Plate. The plate was sealed and stored for 30 minutes in the darkness before radioactivity was quantified in a MicroBeta Scintillation Counter (Perkin Elmer, Wellesley. Mass./United States).

Sequence of c-kit (P10721 26-976): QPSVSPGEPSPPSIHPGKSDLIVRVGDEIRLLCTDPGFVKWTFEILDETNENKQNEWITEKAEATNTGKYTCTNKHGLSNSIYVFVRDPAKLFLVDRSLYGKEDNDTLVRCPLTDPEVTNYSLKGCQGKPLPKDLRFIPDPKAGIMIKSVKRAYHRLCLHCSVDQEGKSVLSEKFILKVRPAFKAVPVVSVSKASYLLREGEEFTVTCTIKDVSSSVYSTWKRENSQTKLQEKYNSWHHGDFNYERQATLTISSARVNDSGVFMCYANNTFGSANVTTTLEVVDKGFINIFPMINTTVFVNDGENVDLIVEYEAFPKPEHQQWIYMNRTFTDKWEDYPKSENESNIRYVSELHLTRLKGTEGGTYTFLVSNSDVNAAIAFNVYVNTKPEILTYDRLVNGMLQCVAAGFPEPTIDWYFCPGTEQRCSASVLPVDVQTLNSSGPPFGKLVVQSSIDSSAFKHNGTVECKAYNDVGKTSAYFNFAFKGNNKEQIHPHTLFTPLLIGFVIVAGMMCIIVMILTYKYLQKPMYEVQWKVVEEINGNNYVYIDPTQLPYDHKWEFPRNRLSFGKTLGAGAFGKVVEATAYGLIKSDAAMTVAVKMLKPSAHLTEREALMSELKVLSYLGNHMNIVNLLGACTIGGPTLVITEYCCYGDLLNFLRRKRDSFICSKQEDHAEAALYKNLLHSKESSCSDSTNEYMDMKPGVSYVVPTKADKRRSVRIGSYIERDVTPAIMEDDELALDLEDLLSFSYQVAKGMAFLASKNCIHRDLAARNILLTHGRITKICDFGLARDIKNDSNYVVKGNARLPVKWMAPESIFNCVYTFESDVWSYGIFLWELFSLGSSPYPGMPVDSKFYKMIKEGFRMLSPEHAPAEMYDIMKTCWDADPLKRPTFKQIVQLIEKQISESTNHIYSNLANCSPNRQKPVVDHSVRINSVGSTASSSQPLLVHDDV

Row | SMILES | inhibition at 10 µM
1 | COc1ccc(Nc2cncc(-c3cccc(NC(C)=O)c3)c2)cc1 [Compound 227, N-{3-[5-(4-Methoxy-phenylamino)-pyridin-3-yl]-phenyl}-acetamide] | 50 to 90%
2 | Oc1cccc(CNc2cncc(-c3cccnc3)c2)c1 [Compound 159, 3-([3,3′]Bipyridinyl-5-ylaminomethyl)-phenol] | 50 to 90%
3 | COc1ccc(-c2cncc(NCc3cccc(O)c3)c2)cc1OC [Compound 223, 3-{[5-(3,4-Dimethoxy-phenyl)-pyridin-3-ylamino]-methyl}-phenol] | > 90%
4 | O=C(NCCO)c1cccc(-c2cncc(NCc3cccc(O)c3)c2)c1 [Compound 217, 3-[5-(3-Hydroxy-benzylamino)-pyridin-3-yl]-N-(2-hydroxy-ethyl)-benzamide] | > 90%

Other lines, results leading:

Row | inhibition at 10 µM | SMILES
5 | > 90% | Nc1cccc(-c2cncc(NCc3cccc(O)c3)c2)c1 [Compound 232, 3-{[5-(3-Amino-phenyl)-pyridin-3-ylamino]-methyl}-phenol]
6 | > 90% | OCc1cccc(-c2cncc(NCc3cccc(O)c3)c2)c1 [Compound 216, 3-{[5-(3-Hydroxymethyl-phenyl)-pyridin-3-ylamino]-methyl}-phenol]
7 | > 90% | Oc1cccc(CNc2cncc(-c3ccc(N4CCOCC4)cc3)c2)c1 [Compound 218, 3-{[5-(4-Morpholin-4-yl-phenyl)-pyridin-3-ylamino]-methyl}-phenol]
8 | 50 to 90% | Oc1cccc(CNc2cncc(-c3ccsc3)c2)c1 [Compound 228, 3-[(5-Thiophen-3-yl-pyridin-3-ylamino)-methyl]-phenol]

Tested on: PDGFR
Experiment: as above
Type: biochemical
Details: class symbol: % inhibition at 10 μM or IC50
Experimental: as §1, §2, §3

Row | SMILES | Inhibitory effect on target PDGFR
9 | COc1ccc(Nc2cncc(-c3cccc(NC(C)=O)c3)c2)cc1 [Compound 227, N-{3-[5-(4-Methoxy-phenylamino)-pyridin-3-yl]-phenyl}-acetamide] | A (A: 50-90% inhibition at 10 μM enzyme concentration)
10 | Nc1cccc(-c2cncc(NCc3cccc(O)c3)c2)c1 [Compound 232, 3-{[5-(3-Amino-phenyl)-pyridin-3-ylamino]-methyl}-phenol] | A (A: 50-90% inhibition at 10 μM enzyme concentration)
11 | Oc1cccc(CNc2cncc(-c3cccnc3)c2)c1 [Compound 159, 3-([3,3′]Bipyridinyl-5-ylaminomethyl)-phenol] | A (A: 50-90% inhibition at 10 μM enzyme concentration)
12 | OCc1cccc(-c2cncc(NCc3cccc(O)c3)c2)c1 [Compound 216, 3-{[5-(3-Hydroxymethyl-phenyl)-pyridin-3-ylamino]-methyl}-phenol] | A (A: 50-90% inhibition at 10 μM enzyme concentration)
13 | COc1ccc(-c2cncc(NCc3cccc(O)c3)c2)cc1OC [Compound 223, 3-{[5-(3,4-Dimethoxy-phenyl)-pyridin-3-ylamino]-methyl}-phenol] | A (A: 50-90% inhibition at 10 μM enzyme concentration)
14 | Oc1cccc(CNc2cncc(-c3ccc(N4CCOCC4)cc3)c2)c1 [Compound 218, 3-{[5-(4-Morpholin-4-yl-phenyl)-pyridin-3-ylamino]-methyl}-phenol] | A (A: 50-90% inhibition at 10 μM enzyme concentration)
15 | O=C(NCCO)c1cccc(-c2cncc(NCc3cccc(O)c3)c2)c1 [Compound 217, 3-[5-(3-Hydroxy-benzylamino)-pyridin-3-yl]-N-(2-hydroxy-ethyl)-benzamide] | A (A: 50-90% inhibition at 10 μM enzyme concentration)
16 | Oc1cccc(CNc2cncc(-c3ccsc3)c2)c1 [Compound 228, 3-[(5-Thiophen-3-yl-pyridin-3-ylamino)-methyl]-phenol] | A (A: 50-90% inhibition at 10 μM enzyme concentration)

Molecular target: p56Lck (Homo sapiens, UniProt P06239)
Experiment: as above
Type: biochemical
Details: 1 h; class symbol: % inhibition at 10 μM or IC50; read-out: Inhibitory effect on target p56Lck
Experimental: as §1, §2, §3

Sequence of p56Lck (P06239 whole entry, species assumed): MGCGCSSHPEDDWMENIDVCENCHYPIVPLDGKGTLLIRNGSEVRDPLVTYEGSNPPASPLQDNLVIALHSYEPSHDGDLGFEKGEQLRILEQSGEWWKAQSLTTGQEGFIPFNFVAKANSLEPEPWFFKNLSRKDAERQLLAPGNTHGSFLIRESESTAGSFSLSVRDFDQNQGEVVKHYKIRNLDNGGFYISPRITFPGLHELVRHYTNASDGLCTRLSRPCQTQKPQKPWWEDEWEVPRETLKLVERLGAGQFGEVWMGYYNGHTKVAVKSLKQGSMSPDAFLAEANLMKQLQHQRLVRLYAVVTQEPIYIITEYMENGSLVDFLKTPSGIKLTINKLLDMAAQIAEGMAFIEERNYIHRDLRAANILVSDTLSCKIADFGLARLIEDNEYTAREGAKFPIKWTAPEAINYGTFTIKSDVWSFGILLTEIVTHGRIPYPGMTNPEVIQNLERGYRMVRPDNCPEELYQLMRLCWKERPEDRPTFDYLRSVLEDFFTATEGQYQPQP

Row | SMILES | inhibition at 10 µM
17 | Oc1cccc(CNc2cncc(-c3cccnc3)c2)c1 [Compound 159, 3-([3,3′]Bipyridinyl-5-ylaminomethyl)-phenol] | 50 to 90%
18 | COc1ccc(-c2cncc(NCc3cccc(O)c3)c2)cc1OC [Compound 223, 3-{[5-(3,4-Dimethoxy-phenyl)-pyridin-3-ylamino]-methyl}-phenol] | 50 to 90%
19 | O=C(NCCO)c1cccc(-c2cncc(NCc3cccc(O)c3)c2)c1 [Compound 217, 3-[5-(3-Hydroxy-benzylamino)-pyridin-3-yl]-N-(2-hydroxy-ethyl)-benzamide] | > 90%

Next, values leading:

Row | inhibition at 10 µM | SMILES
20 | > 90% | Nc1cccc(-c2cncc(NCc3cccc(O)c3)c2)c1 [Compound 232, 3-{[5-(3-Amino-phenyl)-pyridin-3-ylamino]-methyl}-phenol]
21 | 50 to 90% | OCc1cccc(-c2cncc(NCc3cccc(O)c3)c2)c1 [Compound 216, 3-{[5-(3-Hydroxymethyl-phenyl)-pyridin-3-ylamino]-methyl}-phenol]
22 | 50 to 90% | Oc1cccc(CNc2cncc(-c3ccc(N4CCOCC4)cc3)c2)c1 [Compound 218, 3-{[5-(4-Morpholin-4-yl-phenyl)-pyridin-3-ylamino]-methyl}-phenol]

Molecular target: cRaf (Homo sapiens, UniProt P04049)
Experiment: as above
Type: biochemical
Details: 1 h; class symbol: % inhibition at 10 μM or IC50; read-out: Inhibitory effect on target cRaf
Experimental: as §1, §2, §3

Sequence of cRaf (P04049 whole entry, species assumed): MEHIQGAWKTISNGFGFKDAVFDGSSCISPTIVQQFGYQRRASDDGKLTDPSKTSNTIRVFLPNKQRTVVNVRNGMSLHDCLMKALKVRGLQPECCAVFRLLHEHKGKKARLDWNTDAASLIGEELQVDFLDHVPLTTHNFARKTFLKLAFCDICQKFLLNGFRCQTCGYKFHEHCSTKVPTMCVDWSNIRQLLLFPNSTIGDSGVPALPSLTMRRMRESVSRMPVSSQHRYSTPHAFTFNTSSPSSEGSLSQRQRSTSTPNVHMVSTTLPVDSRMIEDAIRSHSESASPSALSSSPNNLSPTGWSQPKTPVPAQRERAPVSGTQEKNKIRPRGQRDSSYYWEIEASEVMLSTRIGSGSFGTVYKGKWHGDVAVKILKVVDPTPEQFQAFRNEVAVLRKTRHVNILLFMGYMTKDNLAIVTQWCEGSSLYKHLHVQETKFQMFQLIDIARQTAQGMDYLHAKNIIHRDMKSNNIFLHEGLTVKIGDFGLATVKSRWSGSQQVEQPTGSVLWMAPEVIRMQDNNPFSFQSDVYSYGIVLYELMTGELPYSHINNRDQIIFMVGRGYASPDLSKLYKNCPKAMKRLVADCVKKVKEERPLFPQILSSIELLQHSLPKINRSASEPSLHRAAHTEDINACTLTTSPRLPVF

Row | inhibition at 10 µM | SMILES
23 | 50 to 90% | Nc1cccc(-c2cncc(NCc3cccc(O)c3)c2)c1 [Compound 232, 3-{[5-(3-Amino-phenyl)-pyridin-3-ylamino]-methyl}-phenol]
24 | 50 to 90% | OCc1cccc(-c2cncc(NCc3cccc(O)c3)c2)c1 [Compound 216, 3-{[5-(3-Hydroxymethyl-phenyl)-pyridin-3-ylamino]-methyl}-phenol]
25 | 50 to 90% | COc1ccc(-c2cncc(NCc3cccc(O)c3)c2)cc1OC [Compound 223, 3-{[5-(3,4-Dimethoxy-phenyl)-pyridin-3-ylamino]-methyl}-phenol]

Molecular target: Abl (Homo sapiens, UniProt P00519)
Experiment: as above
Type: biochemical
Details: 1 h; class symbol: % inhibition at 10 μM or IC50; read-out: Inhibitory effect on target Abl
Experimental: as §1, §2, §3

Sequence of Abl (P00519 whole entry, species assumed): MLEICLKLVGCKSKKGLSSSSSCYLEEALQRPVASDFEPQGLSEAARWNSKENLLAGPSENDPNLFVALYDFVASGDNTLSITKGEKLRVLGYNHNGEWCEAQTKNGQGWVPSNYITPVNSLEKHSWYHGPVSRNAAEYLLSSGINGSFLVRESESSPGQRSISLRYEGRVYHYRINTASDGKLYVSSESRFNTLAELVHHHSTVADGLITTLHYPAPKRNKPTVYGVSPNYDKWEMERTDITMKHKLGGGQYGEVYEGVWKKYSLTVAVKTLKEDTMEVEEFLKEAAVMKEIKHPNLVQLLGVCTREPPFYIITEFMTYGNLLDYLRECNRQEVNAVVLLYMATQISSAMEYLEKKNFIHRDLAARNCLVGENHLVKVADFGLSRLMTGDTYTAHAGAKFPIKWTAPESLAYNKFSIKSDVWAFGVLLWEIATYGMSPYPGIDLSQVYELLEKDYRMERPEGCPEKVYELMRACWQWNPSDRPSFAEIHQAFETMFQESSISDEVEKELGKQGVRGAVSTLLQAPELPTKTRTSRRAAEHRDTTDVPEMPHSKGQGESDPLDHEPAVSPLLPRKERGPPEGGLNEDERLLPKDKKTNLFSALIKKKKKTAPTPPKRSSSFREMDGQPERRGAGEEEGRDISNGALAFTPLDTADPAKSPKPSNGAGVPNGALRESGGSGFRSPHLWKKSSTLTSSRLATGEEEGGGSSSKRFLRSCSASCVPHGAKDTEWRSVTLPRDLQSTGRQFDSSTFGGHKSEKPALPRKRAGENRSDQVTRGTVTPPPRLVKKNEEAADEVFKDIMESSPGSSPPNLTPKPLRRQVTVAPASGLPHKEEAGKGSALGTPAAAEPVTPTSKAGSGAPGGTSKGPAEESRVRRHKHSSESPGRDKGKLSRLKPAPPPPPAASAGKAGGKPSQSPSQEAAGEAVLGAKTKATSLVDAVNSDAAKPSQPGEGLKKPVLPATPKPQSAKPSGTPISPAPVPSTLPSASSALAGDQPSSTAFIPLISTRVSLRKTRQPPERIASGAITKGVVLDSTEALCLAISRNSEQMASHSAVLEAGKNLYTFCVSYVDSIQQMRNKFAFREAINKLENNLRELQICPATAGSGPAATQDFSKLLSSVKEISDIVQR

Row | SMILES | inhibition at 10 µM
26 | Oc1cccc(CNc2cncc(-c3cccnc3)c2)c1 [Compound 159, 3-([3,3′]Bipyridinyl-5-ylaminomethyl)-phenol] | 50 to 90%
27 | COc1ccc(-c2cncc(NCc3cccc(O)c3)c2)cc1OC [Compound 223, 3-{[5-(3,4-Dimethoxy-phenyl)-pyridin-3-ylamino]-methyl}-phenol] | 50 to 90%
28 | O=C(NCCO)c1cccc(-c2cncc(NCc3cccc(O)c3)c2)c1 [Compound 217, 3-[5-(3-Hydroxy-benzylamino)-pyridin-3-yl]-N-(2-hydroxy-ethyl)-benzamide] | 50 to 90%

Second part, the compound after the results:

Row | inhibition at 10 µM | SMILES
29 | > 90% | Nc1cccc(-c2cncc(NCc3cccc(O)c3)c2)c1 [Compound 232, 3-{[5-(3-Amino-phenyl)-pyridin-3-ylamino]-methyl}-phenol]
30 | 50 to 90% | OCc1cccc(-c2cncc(NCc3cccc(O)c3)c2)c1 [Compound 216, 3-{[5-(3-Hydroxymethyl-phenyl)-pyridin-3-ylamino]-methyl}-phenol]

Molecular target: RICK (Homo sapiens, UniProt O43353)
Experiment: as above
Type: biochemical
Details: class symbol: % inhibition at 10 μM or IC50
Experimental: as §1, §2, §3

Sequence of RICK (O43353 whole entry, species assumed): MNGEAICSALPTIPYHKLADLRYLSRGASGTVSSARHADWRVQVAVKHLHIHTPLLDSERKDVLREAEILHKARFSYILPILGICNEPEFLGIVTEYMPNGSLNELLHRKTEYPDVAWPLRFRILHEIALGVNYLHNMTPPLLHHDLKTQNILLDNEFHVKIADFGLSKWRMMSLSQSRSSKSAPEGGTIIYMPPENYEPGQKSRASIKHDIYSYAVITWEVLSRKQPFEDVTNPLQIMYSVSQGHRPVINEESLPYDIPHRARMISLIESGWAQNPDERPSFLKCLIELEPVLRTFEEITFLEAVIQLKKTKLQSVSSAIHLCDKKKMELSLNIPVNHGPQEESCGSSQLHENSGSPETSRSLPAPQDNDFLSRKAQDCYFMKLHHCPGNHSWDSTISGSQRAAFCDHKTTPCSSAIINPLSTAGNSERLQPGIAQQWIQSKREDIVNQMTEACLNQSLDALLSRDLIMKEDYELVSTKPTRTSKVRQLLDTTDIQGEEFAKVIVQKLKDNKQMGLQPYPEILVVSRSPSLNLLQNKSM

Row | SMILES | Inhibitory effect on target RICK
31 | COc1ccc(Nc2cncc(-c3cccc(NC(C)=O)c3)c2)cc1 [Compound 227, N-{3-[5-(4-Methoxy-phenylamino)-pyridin-3-yl]-phenyl}-acetamide] | C (C: IC50 measured: <1 μM)
32 | Oc1cccc(CNc2cncc(-c3cccnc3)c2)c1 [Compound 159, 3-([3,3′]Bipyridinyl-5-ylaminomethyl)-phenol] | C (C: IC50 measured: <1 μM)
33 | COc1ccc(-c2cncc(NCc3cccc(O)c3)c2)cc1OC [Compound 223, 3-{[5-(3,4-Dimethoxy-phenyl)-pyridin-3-ylamino]-methyl}-phenol] | C (C: IC50 measured: <1 μM)
34 | O=C(NCCO)c1cccc(-c2cncc(NCc3cccc(O)c3)c2)c1 [Compound 217, 3-[5-(3-Hydroxy-benzylamino)-pyridin-3-yl]-N-(2-hydroxy-ethyl)-benzamide] | C (C: IC50 measured: <1 μM)

Further lines, results first:

Row | Inhibitory effect on target RICK | SMILES
35 | C (C: IC50 measured: <1 μM) | Nc1cccc(-c2cncc(NCc3cccc(O)c3)c2)c1 [Compound 232, 3-{[5-(3-Amino-phenyl)-pyridin-3-ylamino]-methyl}-phenol]
36 | C (C: IC50 measured: <1 μM) | OCc1cccc(-c2cncc(NCc3cccc(O)c3)c2)c1 [Compound 216, 3-{[5-(3-Hydroxymethyl-phenyl)-pyridin-3-ylamino]-methyl}-phenol]
37 | C (C: IC50 measured: <1 μM) | Oc1cccc(CNc2cncc(-c3ccc(N4CCOCC4)cc3)c2)c1 [Compound 218, 3-{[5-(4-Morpholin-4-yl-phenyl)-pyridin-3-ylamino]-methyl}-phenol]
38 | C (C: IC50 measured: <1 μM) | Oc1cccc(CNc2cncc(-c3ccsc3)c2)c1 [Compound 228, 3-[(5-Thiophen-3-yl-pyridin-3-ylamino)-methyl]-phenol]

Molecular target: EGFR (Homo sapiens, UniProt P00533)
Experiment: as above
Type: biochemical
Details: class symbol: % inhibition at 10 μM or IC50
Experimental: as §1, §2, §3

Sequence of EGFR (P00533 25-1210, species assumed): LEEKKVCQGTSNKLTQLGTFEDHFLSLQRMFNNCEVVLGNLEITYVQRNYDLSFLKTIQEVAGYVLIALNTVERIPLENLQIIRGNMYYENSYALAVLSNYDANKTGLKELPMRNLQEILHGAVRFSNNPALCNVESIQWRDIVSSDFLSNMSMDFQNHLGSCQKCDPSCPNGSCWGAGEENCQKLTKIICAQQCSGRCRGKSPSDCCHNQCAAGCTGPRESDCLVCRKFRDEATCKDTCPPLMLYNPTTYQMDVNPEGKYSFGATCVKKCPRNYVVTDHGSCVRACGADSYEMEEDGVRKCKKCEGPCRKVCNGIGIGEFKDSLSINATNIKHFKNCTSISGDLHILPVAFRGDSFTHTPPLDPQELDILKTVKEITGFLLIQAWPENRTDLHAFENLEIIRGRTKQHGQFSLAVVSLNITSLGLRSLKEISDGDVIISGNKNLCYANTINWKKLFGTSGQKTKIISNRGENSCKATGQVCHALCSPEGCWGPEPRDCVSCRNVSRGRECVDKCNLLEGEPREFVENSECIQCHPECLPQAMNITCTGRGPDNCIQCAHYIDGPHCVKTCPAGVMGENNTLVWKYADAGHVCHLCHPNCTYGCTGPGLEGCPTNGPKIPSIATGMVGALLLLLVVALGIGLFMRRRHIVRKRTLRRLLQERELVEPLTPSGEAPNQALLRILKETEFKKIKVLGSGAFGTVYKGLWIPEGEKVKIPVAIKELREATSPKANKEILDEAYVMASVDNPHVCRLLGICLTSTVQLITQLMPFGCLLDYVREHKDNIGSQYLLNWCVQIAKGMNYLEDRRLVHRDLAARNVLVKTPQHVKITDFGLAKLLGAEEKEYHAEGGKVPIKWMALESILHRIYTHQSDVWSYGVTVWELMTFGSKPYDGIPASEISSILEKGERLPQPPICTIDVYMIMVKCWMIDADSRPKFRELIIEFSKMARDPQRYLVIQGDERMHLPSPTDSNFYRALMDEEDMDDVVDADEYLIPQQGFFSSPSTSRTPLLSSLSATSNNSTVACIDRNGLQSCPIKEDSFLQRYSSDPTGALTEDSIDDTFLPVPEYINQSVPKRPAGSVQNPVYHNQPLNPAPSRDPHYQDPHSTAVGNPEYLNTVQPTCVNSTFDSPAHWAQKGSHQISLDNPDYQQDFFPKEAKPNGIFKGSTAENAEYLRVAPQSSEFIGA

Row | SMILES | Inhibitory effect on target EGFR
39 | Nc1cccc(-c2cncc(NCc3cccc(O)c3)c2)c1 [Compound 232, 3-{[5-(3-Amino-phenyl)-pyridin-3-ylamino]-methyl}-phenol] | A (A: 50-90% inhibition at 10 μM enzyme concentration)
40 | Oc1cccc(CNc2cncc(-c3cccnc3)c2)c1 [Compound 159, 3-([3,3′]Bipyridinyl-5-ylaminomethyl)-phenol] | A (A: 50-90% inhibition at 10 μM enzyme concentration)
41 | OCc1cccc(-c2cncc(NCc3cccc(O)c3)c2)c1 [Compound 216, 3-{[5-(3-Hydroxymethyl-phenyl)-pyridin-3-ylamino]-methyl}-phenol] | A (A: 50-90% inhibition at 10 μM enzyme concentration)
42 | COc1ccc(-c2cncc(NCc3cccc(O)c3)c2)cc1OC [Compound 223, 3-{[5-(3,4-Dimethoxy-phenyl)-pyridin-3-ylamino]-methyl}-phenol] | A (A: 50-90% inhibition at 10 μM enzyme concentration)
43 | Oc1cccc(CNc2cncc(-c3ccc(N4CCOCC4)cc3)c2)c1 [Compound 218, 3-{[5-(4-Morpholin-4-yl-phenyl)-pyridin-3-ylamino]-methyl}-phenol] | A (A: 50-90% inhibition at 10 μM enzyme concentration)
44 | O=C(NCCO)c1cccc(-c2cncc(NCc3cccc(O)c3)c2)c1 [Compound 217, 3-[5-(3-Hydroxy-benzylamino)-pyridin-3-yl]-N-(2-hydroxy-ethyl)-benzamide] | A (A: 50-90% inhibition at 10 μM enzyme concentration)

Reference: patent US20090196912A1, “Pyridinylamines” (GPC Botech AG, priority 2004, published 2009)
